In brackets after ≈: the same amount, converted by molar mass. Read-outs that look alike come from different tables or passages of the source.
Tests used:
[1] = test system: Micrococcus luteus; set-up: method as in PMID 25574740; conditions: cited from earlier work
[2] = test system: human ovarian cancer cells; conditions: read-out: IC50 against human ovarian cancer cells; cited from earlier work
[3] = test system: Staphylococcus aureus; conditions: cited from earlier work
[4] = test system: Bacillus subtilis BS01; test: Antibacterial assay, micro broth dilution; format: cell-based; conditions: read-out: Antibacterial Activity (MIC) B. subtilis
Experimental: (§1) The micro broth dilution method was used to evaluate the antibacterial activities of compounds 1–19 against the growth of eight common pathogens: Bacillus subtilis BS01, Micrococcus luteus, Escherichia coli ATCC 25922, Staphylococcus aureus ATCC 6538, S. aureus MRSA, Streptococcus agalactiae ATCC 13813, S. iniae, and Pseudomonas aeruginosa ATCC 9027 in 96-well polystyrene plates. Vancomycin and ciprofloxacin were used as positive controls. Briefly, wells containing 100 μL bacteria dilutions (OD600 = 0.01) in Luria–Bertani (LB) medium were supplemented with different concentrations of 1–19 (80, 40, 20, 10, 5, 2.5, 1.25, and 0.625 μg/mL), vancomycin, and ciprofloxacin (40, 20, 10, 5, 2.5, 1.25, 0.625, and 0.3125 μg/mL), respectively. The MICs were determined after 24 hours’ incubation at 37 °C with the tested compounds.

[5] = test system: S. iniae; test: Antibacterial assay, micro broth dilution; format: cell-based; conditions: Streptococcus iniae, read-out: Antibacterial Activity (MIC) S. iniae
Experimental: as §1

[6] = test system: Pseudomonas aeruginosa ATCC 9027; test: Antibacterial assay, micro broth dilution; format: cell-based; conditions: read-out: Antibacterial Activity (MIC) P. aeruginosa
Experimental: as §1

[7] = test system: S. aureus MRSA; test: Antibacterial assay, micro broth dilution; format: cell-based; conditions: Staphylococcus aureus, read-out: Antibacterial Activity (MIC) MRSA
Experimental: as §1

[8] = test system: Escherichia coli ATCC 25922; test: Antibacterial assay, micro broth dilution; format: cell-based; conditions: read-out: Antibacterial Activity (MIC) E. coli
Experimental: as §1

[9] = test system: Streptococcus agalactiae ATCC 13813; test: Antibacterial assay, micro broth dilution; format: cell-based; conditions: read-out: Antibacterial Activity (MIC) S. agalactiae
Experimental: as §1

[10] = test system: Micrococcus luteus; test: Antibacterial assay, micro broth dilution; format: cell-based; conditions: read-out: Antibacterial Activity (MIC) M. luteus
Experimental: as §1

[11] = test system: Staphylococcus aureus ATCC 6538; test: Antibacterial assay, micro broth dilution; format: cell-based; conditions: read-out: Antibacterial Activity (MIC) S. aureus
Experimental: as §1

[12] = test system: brine shrimps; test: Brine shrimp lethality bioassay; format: in vivo; conditions: Table 3
Excerpt: The methods were the same as those used in our previous studies.

[13] = Antibacterial assays, summary in text over several pathogens; format: cell-based; conditions: read-out: MIC values against four pathogens
Experimental: as §1

[14] = Cytotoxicity, CCK-8 method; format: cell-based; conditions: human
Experimental: (§2) Cytotoxic activity was evaluated using the human lung adenocarcinoma cell line H1975 and human hepatocellular carcinoma cell line HepG-2, using the CCK-8 method as described in our previous study. Briefly, each of the test compounds was dissolved in DMSO and further diluted to give final concentrations of 80, 40, 20, 10, 5, 2.5, and 1.25 μM, respectively. H1975 cells or HepG-2 cells (5 × 10^3 […]) were seeded in 96-well plates and treated with compounds at the indicated concentration for 24 hours and then 10 μL CCK-8 reagent was added to each well. The plates were incubated at 37 °C for another 4 hours. Finally, the optical density was measured at a wavelength of 450 nm with a Bio-Rad microplate reader. Dose–response curves were generated, and the IC50 values were calculated from the linear portion of log dose–response curves.

[15] = Cytotoxicity, CCK-8 method; format: cell-based; conditions: human; remark: listed apart in the source
Experimental: as §2

[16] = BS01, micro broth dilution, LB medium, 24 hours at 37 °C
[17] = micro broth dilution, LB medium, 24 hours at 37 °C
[18] = ATCC9027, micro broth dilution, LB medium, 24 hours at 37 °C
[19] = ATCC25922, micro broth dilution, LB medium, 24 hours at 37 °C
[20] = ATCC13813, micro broth dilution, LB medium, 24 hours at 37 °C
[21] = ATCC6538, micro broth dilution, LB medium, 24 hours at 37 °C
[22] = H1975 cells, CCK-8, 24 hours treatment, read-out: Cytotoxicity (IC50) against H1975
[23] = HepG-2 cells, CCK-8, 24 hours treatment, read-out: Cytotoxicity (IC50) against HepG-2

In the case of `O=C(N[C@H](CO)[C@H](O)c1ccc([N+](=O)[O-])cc1)C(Cl)Cl` [chloromycetin], the “MIC against Micrococcus luteus” value [1] is listed as 2.0 µg/mL (≈ 6.19 µM).
For `O=C1N2[C@H]3C(=CC=C[C@@H]3O)C[C@]23SS[C@]12C[C@H]1[C@@H]([C@@H](O)C=C[C@@H]1O)N2C3=O` [brocazine G], the IC50 [2] is given as 0.66 µM and the “MIC against Staphylococcus aureus” value [3] is given as 0.25 µg/mL (≈ 0.615 µM).
In the case of `CSS[C@@]12CC3=COC=C[C@H](OC(C)=O)[C@H]3N1C(=O)[C@]1(SC)CC3=COC=C[C@H](OC(C)=O)[C@H]3N1C2=O` [Compound 5, Lecanicillium E], the MIC [4, 16] is reported as 10 µg/mL (≈ 17.6 µM), the MIC [5, 17] is reported as 15 µg/mL (≈ 26.5 µM) and the MIC [6, 18] is reported as > 80 µg/mL. The MIC [7, 17] was > 80 µg/mL, the MIC [8, 19] was 80 µg/mL (≈ 141 µM) and the MIC [9, 20] was 25 µg/mL (≈ 44.1 µM). For the same compound, the MIC [10, 17] was 40 µg/mL (≈ 70.6 µM), the MIC [11, 21] was > 80 µg/mL and the “Toxicity (TC50) Brine Shrimp” value [12] was 40 µg/mL. For the same compound, the MIC [13] was 10 to 40 µg/mL (≈ 17.6 to 70.6 µM), the IC50 at 24 h [14] was 16.3 µM and the IC50 at 24 h [15] was > 80 µM.
For `CS[C@@]12C[C@H]3[C@@H]([C@@H](O)C=C[C@@H]3O)N1C(=O)[C@]1(SC)C[C@H]3[C@@H]([C@@H](O)C=C[C@@H]3O)N1C2=O` [Penicibrocazine C], the “MIC against Micrococcus luteus” value [1] is listed as 0.25 µg/mL (≈ 0.55 µM).
For `CS[C@@]1(Cc2ccccc2)NC(=O)[C@]2(SC)CC3=COC=C[C@H](O)[C@H]3N2C1=O` [Compound 18, emestrin H], the MIC ([4]; BS01, 24 h) was 80 µg/mL (≈ 191 µM), the MIC ([5]; 24 h) was 40 µg/mL (≈ 95.6 µM) and the MIC ([6]; ATCC9027, 24 h) was > 80 µg/mL. The MIC ([7]; 24 h) was > 80 µg/mL, the MIC ([8]; ATCC25922, 24 h) was > 80 µg/mL and the MIC ([9]; ATCC13813, 24 h) was > 80 µg/mL. The MIC ([10]; 24 h) was > 80 µg/mL, the MIC ([11]; ATCC6538, 24 h) was > 80 µg/mL and the “Toxicity (TC50) Brine Shrimp” value [12] was >80 µg/mL. It also gave an IC50 at 24 h [14, 22] of 50.6 µM and an IC50 at 24 h [15, 23] of 41.2 µM.
In the case of `CSC12CC3=COC=CC(O)C3N1C(=O)C1(Cc3ccccc3O1)NC2=O` (stereo not shown) [Compound 2, Lecanicillium B], the MIC [4, 16] is reported as 80 µg/mL (≈ 207 µM), the MIC [5, 17] is reported as 70 µg/mL (≈ 181 µM) and the MIC [6, 18] is reported as > 80 µg/mL. The MIC [7, 17] was > 80 µg/mL, the MIC [8, 19] was > 80 µg/mL and the MIC [9, 20] was > 80 µg/mL. For the same compound, the MIC [10, 17] was 60 µg/mL (≈ 155 µM), the MIC [11, 21] was > 80 µg/mL and the “Toxicity (TC50) Brine Shrimp” value [12] was >80 µg/mL. The IC50 at 24 h [14] was > 80 µM and the IC50 at 24 h [15] was > 80 µM.
With `CS[C@@]12CC3=CC=C[C@H](OC(C)=O)[C@H]3N1C(=O)[C@]1(SC)CC3=CC=C[C@H](OC(C)=O)[C@H]3N1C2=O` [Compound 15, haematocin] the MIC ([4]; BS01, 24 h) was 80 µg/mL (≈ 159 µM), the MIC ([5]; 24 h) was > 80 µg/mL and the MIC ([6]; ATCC9027, 24 h) was > 80 µg/mL. The MIC ([7]; 24 h) was > 80 µg/mL, the MIC ([8]; ATCC25922, 24 h) was > 80 µg/mL and the MIC ([9]; ATCC13813, 24 h) was > 80 µg/mL. The MIC ([10]; 24 h) was > 80 µg/mL, the MIC ([11]; ATCC6538, 24 h) was > 80 µg/mL and the “Toxicity (TC50) Brine Shrimp” value [12] was >80 µg/mL. The IC50 at 24 h [14, 22] was > 80 µM and the IC50 at 24 h [15, 23] was > 80 µM.

Reference: paper PMC10672332, “Lecanicilliums A–F, Thiodiketopiperazine-Class Alkaloids from a Mangrove Sediment-Derived Fungus Lecanicillium kalimantanense” (Marine Drugs, 2023)
